Assay [1] addresses Brefeldin A-inhibited guanine nucleotide-exchange protein 1 (Homo sapiens) (UniProt Q9Y6D6).
Assay [2] deals with Heterogeneous nuclear ribonucleoprotein R (Homo sapiens) (UniProt O43390).
The target in assay [3] is 3-hydroxyacyl-CoA dehydrogenase type-2 (Homo sapiens) (UniProt Q99714).
For assay [4], the target named is ER lumen protein-retaining receptor 1 (Homo sapiens) (UniProt P24390).
The target in assay [5] is Methylcrotonoyl-CoA carboxylase beta chain, mitochondrial (Homo sapiens) (UniProt Q9HCC0).
Assay [6] deals with Protein-L-isoaspartate(D-aspartate) O-methyltransferase (Homo sapiens) (UniProt P22061).
Assay [7] has as its target Solute carrier family 25 member 3 (Homo sapiens) (UniProt Q00325).
The target of assay [8] is Serine-threonine kinase receptor-associated protein (Homo sapiens) (UniProt Q9Y3F4).
The target of assay [9] is 14-3-3 protein beta/alpha (Homo sapiens) (UniProt P31946).
Assay [10] deals with Dolichyl-diphosphooligosaccharide--protein glycosyltransferase 48 kDa subunit (Homo sapiens) (UniProt P39656).
In assay [11] the target is Nucleolar RNA helicase 2 (Homo sapiens) (UniProt Q9NR30).
For assay [12], the target named is Very long chain fatty acid elongase 5 (Homo sapiens) (UniProt Q9NYP7).
In assay [13] the target is Phenylalanine--tRNA ligase beta subunit (Homo sapiens) (UniProt Q9NSD9).
Assay [14] concerns the target EKC/KEOPS complex subunit LAGE3 (Homo sapiens) (UniProt Q14657).
Assay [15] concerns the target Macrophage migration inhibitory factor (Homo sapiens) (UniProt P14174).
In assay [16] the target is Nascent polypeptide-associated complex subunit alpha (Homo sapiens) (UniProt Q13765).
Assay [17] concerns the target Protein prenyltransferase alpha subunit repeat-containing protein 1 (Homo sapiens) (UniProt Q7Z6K3).
Assay [18] deals with RNA-binding protein 14 (Homo sapiens) (UniProt Q96PK6).
Assay [19] addresses Radixin (Homo sapiens) (UniProt P35241).
In assay [20] the target is Replication factor C subunit 5 (Homo sapiens) (UniProt P40937).
Assay [21] concerns the target Large ribosomal subunit protein eL19 (Homo sapiens) (UniProt P84098).
For assay [22], the species on record is Homo sapiens.
The target of assay [23] is Splicing factor 3B subunit 2 (Homo sapiens) (UniProt Q13435).
Assay [24] has as its target Dolichyl-diphosphooligosaccharide--protein glycosyltransferase subunit STT3B (Homo sapiens) (UniProt Q8TCJ2).
The target of assay [25] is 14-3-3 protein zeta/delta (Homo sapiens) (UniProt P63104).
Assay [26] has as its target Aldo-keto reductase family 1 member D1 (Homo sapiens) (UniProt P51857).
The target in assay [27] is AP-1 complex subunit sigma-1A (Homo sapiens) (UniProt P61966).
Assay [28] has as its target Arfaptin-2 (Homo sapiens) (UniProt P53365).
The target of assay [29] is Serine hydrolase BPHL (Homo sapiens) (UniProt Q86WA6).
The target in assay [30] is Cytochrome c oxidase assembly protein COX14 (Homo sapiens) (UniProt Q96I36).
The target of assay [31] is Copine-4 (Homo sapiens) (UniProt Q96A23).
Assay [32] deals with Transcriptional repressor CTCF (Homo sapiens) (UniProt P49711).
The target in assay [33] is FAD synthase (Homo sapiens) (UniProt Q8NFF5).
The target in assay [34] is Forkhead box protein K1 (Homo sapiens) (UniProt P85037).
In assay [35] the target is Heterogeneous nuclear ribonucleoprotein D-like (Homo sapiens) (UniProt O14979).
Assay [36] addresses Lysosomal alpha-mannosidase (Homo sapiens) (UniProt O00754).
In assay [37] the target is RNA-binding protein Musashi homolog 2 (Homo sapiens) (UniProt Q96DH6).
For assay [38], the target named is Unconventional myosin-Ig (Homo sapiens) (UniProt B0I1T2).
For assay [39], the target named is NADH dehydrogenase [ubiquinone] flavoprotein 2, mitochondrial (Homo sapiens) (UniProt P19404).
Assay [40] concerns the target Peroxisomal biogenesis factor 3 (Homo sapiens) (UniProt P56589).
Assay [41] concerns the target PHD finger protein 6 (Homo sapiens) (UniProt Q8IWS0).
Assay [42] deals with Pumilio homolog 2 (Homo sapiens) (UniProt Q8TB72).
Assay [43] addresses Retinoblastoma-binding protein 5 (Homo sapiens) (UniProt Q15291).
In assay [44] the target is Syndecan-2 (Homo sapiens) (UniProt P34741).
Assay [45] has as its target 14-3-3 protein sigma (Homo sapiens) (UniProt P31947).
For assay [46], the target named is Small nuclear ribonucleoprotein F (Homo sapiens) (UniProt P62306).
The target in assay [47] is Ribosome biogenesis protein WDR12 (Homo sapiens) (UniProt Q9GZL7).

This is an account of results in ChEMBL document CHEMBL5649169 (ChemMedChem, 2018).
Also: assay method not described here.

Take `Cc1ccc(C(=O)Nc2cccc(C(F)(F)F)c2)cc1Nc1nc(-c2cccnc2)nc2nn(C)cc12`: the ED50 in assay [1] amounted to 0.516 µM; in assay [2], 0.00823 µM; in [3], 0.0508 µM; in assay [4] it was 0.000253 µM; in assay [5], 0.102 µM; in assay [6] it was 0.393 µM. Also, the results for the ED50 in assay [7], in [8] and in [9] were 8.08 µM, 0.0177 µM and 0.0807 µM, respectively.

As to `Cc1ccc(C(=O)Nc2cccc(C(F)(F)F)c2)cc1Nc1nc(-c2cccnc2)nc2c1cnn2C`, the ED50 is 0.169 µM in [10]; 0.384 µM in [11]; 2.87 µM in [12]; 0.0971 µM in assay [13]; 131 µM in assay [14]; 0.00224 µM in [15]. Further, the ED50 was 0.0901 µM in assay [16]; 0.0155 µM in [17]; 12.4 µM in assay [18]; 0.002 µM in [19]; 0.584 µM in [20]; 2.93 µM in assay [21]. Moreover, the ED50 in [22] came out at 3.87 µM; in assay [23], 0.00691 µM; in assay [24], 0.626 µM; in [25], 0.00453 µM; in assay [26], 0.0719 µM; in [27], 0.163 µM. In addition, the ED50 in [28] came out at 211 µM; in assay [29] it was 13.2 µM; in assay [30], 0.00496 µM; in assay [31], 0.00867 µM; in [32], 1.99 µM; in assay [33] it was 0.998 µM. Further, the ED50 in assay [34] came out at 0.00359 µM; in [35], 0.0685 µM; in [36] it was 83 µM; in assay [37], 0.00124 µM; in assay [38], 0.00217 µM; in [39] it was 0.571 µM. Also, the ED50 in assay [40] is 0.0115 µM; in assay [41], 2.01 µM; in assay [42], 0.526 µM; in [43] it was 21.2 µM; in assay [44], 13.6 µM; in [45], 0.00306 µM. Besides, the values for the ED50 in assay [46] and in assay [47] were 143 µM and 0.00121 µM, respectively.
